Measurements: PubChem BioAssay (NCI)
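1) Cells in 96-well plates. 2) Compound, 48 h, 5 concentrations. 3) Linear interpolation between surrounding doses. 4) Unreached endpoint = highest concentration. The concentration for 50% growth inhibition is given as GI50. TGI: total growth inhibition.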

Columns and labels:
Assay in all cases: DTP human tumour cell line panel, 48 h
[1] = test system: CCRF-CEM leukemia
[2] = test system: HCT-15 colon
[3] = test system: HS 578T breast
[4] = test system: M14 melanoma
[5] = test system: MCF7 breast
[6] = test system: SF-268 CNS
[7] = test system: SK-MEL-28 melanoma
[8] = test system: SNB-75 CNS
[9] = test system: T-47D breast
[10] = test system: TK-10 renal

| SMILES | TGI [1] [µM] | TGI [2] [µM] | TGI [3] [µM] | TGI [4] [µM] | TGI [5] [µM] | TGI [6] [µM] | TGI [7] [µM] | TGI [8] [µM] | TGI [9] [µM] | TGI [10] [µM] | GI50 [8] [µM] |
| --- | --- | --- | --- | --- | --- | --- | --- | --- | --- | --- | --- |
| CC1(C)[C@@H](Cn2cnc3c(N)ncnc32)CC[C@@]1(C)CO | > 100 | > 100 | > 100 | > 100 | > 100 | > 100 | > 100 | > 100 | > 100 | > 100 |  |
| O=C(Nc1cccc(C(F)(F)F)c1)O/N=C(/Cl)CCl | > 100 | > 100 | > 100 | > 100 | > 100 | > 100 | > 100 | > 100 | > 100 | > 100 |  |
| CNc1ccc(-c2nc3cc(C)ccc3o2)cc1 | > 100 | > 100 | > 100 | > 100 | > 100 | > 100 | > 100 | 33.7 | > 100 | > 100 |  |
| Clc1ccc(Cc2nc3ccc(CCN4CCN(c5ccccc5)CC4)cc3[nH]2)cc1 | > 100 | 39.8 | 47.3 | 19.2 | 37.6 | > 100 | 54.3 | 38.3 | 33.6 | 27 |  |
| CN(C)c1ccc(/C=C2\N=C(NN)NC2=O)cc1 | > 100 | > 100 | > 100 | > 100 | > 100 | > 100 | > 100 | > 100 | > 100 | > 100 |  |
| O=C1NC(N/N=C\C(O)C(O)C(O)CO)=N/C1=C/c1ccc(Cl)cc1 (stereo unspecified) | > 100 | 52.8 | > 100 | 77.8 | > 100 | > 100 | > 100 | > 100 | > 100 | > 100 |  |
| N#Cc1c(SCc2ccccc2)nc(-c2ccccc2)[nH]c1=S | > 100 | 50.4 | 92 | 89.8 | 71 | 57 | 55 | 47.1 | 80.2 | > 100 |  |
| COc1ccc2[nH]c(Cl)c(/C=C3/C(=O)Nc4cc(C)c(OC)cc43)c2c1 | 19.1 | 12.9 | 20.9 | 14.2 | 14.4 | 19.3 | 22.1 | 23.4 | 30.4 | 21.3 |  |
| C=CCOc1ccccc1N=N/C(C#N)=N\Nc1ccccc1OCC=C | > 100 | > 100 | > 100 | > 100 | > 100 | > 100 | > 100 | > 100 | > 100 | > 100 |  |
| COc1cc2c(c(OC)c1OC)-c1ccc(SC)c(=O)cc1[C@@H](OC(C)=O)CC2 | 0.0312 | > 100 | > 100 | > 100 | > 100 | 25.1 | > 100 | > 82.1 | > 100 | > 100 |  |
| CC(C)C(C/C=C1\CC(CO)(COC(=O)c2ccccc2)OC1=O)C(C)C (stereo unspecified) | 44.1 | 41 | 33.4 | 32.8 | 40.9 | 35.5 | 30.2 | 29.1 | > 100 | 34.2 |  |
| O=C(/C=C/c1ccsc1)c1ccco1 | 22.9 | 20.1 | 29.6 | 24.2 | 6.32 | 38.5 | 25.4 | 26 | 27.2 | 50.5 |  |
| CCOC(=O)Nc1c(C#N)[n+]([O-])c2cc(Cl)c(Cl)cc2[n+]1[O-] | 22.9 | 25.8 | > 100 | 38.9 | 41.3 | 34.3 | 30.7 | 41.8 | 54.2 | > 100 |  |
| c1ccc(C2=Nc3nc4ccccc4n3C(c3ccccc3)C2)cc1 (stereo unspecified) | > 100 | > 100 | > 100 | > 100 | > 100 | > 100 | > 100 | > 100 | > 100 | > 100 |  |
| COC(=O)C(CCc1ccccc1I)C1=CCC2(CC1)OCCO2 (stereo unspecified) | 33.7 | > 100 | > 100 | > 100 | > 100 | > 100 | > 100 | > 100 | 71.3 | > 100 |  |
| CN(C)c1nc(NC23CC4CC(CC(C4)C2)C3)nc(N(C)C)n1 | 28.7 | 41.2 | 56 | > 57.9 | > 63.3 | > 100 | > 69.9 | > 55.2 | 49.6 | > 100 |  |
| C=CCOCn1cnc2c(N)ncnc21 | > 100 | > 100 | > 100 | > 100 | > 100 | > 100 | > 100 | > 100 | > 100 | > 100 |  |

| SMILES | TGI [1] [µM] | TGI [2] [µM] | TGI [3] [µM] | TGI [4] [µM] | TGI [5] [µM] | TGI [6] [µM] | TGI [7] [µM] | TGI [8] [µM] | TGI [9] [µM] | TGI [10] [µM] | GI50 [8] [µM] |
| --- | --- | --- | --- | --- | --- | --- | --- | --- | --- | --- | --- |
| COc1cc(OC)c2c(O)c3c(cc2c1)CC(C)(C)CC3=O | > 100 | > 100 | > 100 | > 100 | > 100 | > 100 | > 100 | > 100 | > 100 | > 100 |  |
| CC(C(=O)ON1C(=O)CCC1=O)c1ccc(C(=O)c2ccccc2)s1 (stereo unspecified) | > 100 | > 100 | > 100 | > 100 | > 100 | > 100 | > 100 | > 100 | > 100 | > 100 |  |
| COc1ccc(S(=O)(=O)O)cc1-n1nc(C(=O)Nc2ccccc2)n[n+]1-c1cc(S(=O)(=O)[O-])ccc1OC | > 100 | > 100 | > 100 | > 100 | > 100 | > 100 | > 100 | > 100 | > 100 | > 100 |  |
| CC(C)[C@@H]1CC[C@@H](C)C[C@H]1OC(=O)/C=C1/C2C=CC(O2)C1C(=O)O[C@@H]1C[C@H](C)CC[C@H]1C(C)C (stereo partly specified) | > 100 | > 100 | > 100 | > 100 | > 100 | > 100 | > 100 | > 100 | > 100 | > 100 |  |
| O=c1[nH]nc(-c2ccccc2)n1/N=C/c1ccncc1 | > 100 | > 100 | 97.3 | > 100 | > 100 | > 100 | > 100 | > 100 | > 100 | > 100 |  |
| CC(=O)N1CCc2c([nH]c3ccc(Br)cc23)C1c1ccccc1 (stereo unspecified) | > 10 | > 10 | > 10 | > 10 | > 10 | > 10 | > 10 | > 10 | > 10 | > 10 |  |
| Cn1c(=O)c2c(nc3n(Cc4ccccc4)c(=O)c(NCCBr)cn23)n(C)c1=O | > 100 | > 100 | 76.6 | > 100 | > 100 | > 100 | > 100 | 49.8 | 52.9 | 44.5 |  |
| COC(=O)C(C)(N=Cc1ccccc1)c1ccccc1 (stereo unspecified) | > 100 | > 100 | > 100 | > 100 | > 100 | > 100 | > 100 | > 100 | > 100 | > 100 |  |
| CCCCCC(=O)N[C@@H](c1ccccc1)C(O)C(=O)OC1C[C@@]2(O)C(OC(=O)c3ccccc3)C3[C@](C)(C(=O)[C@H](O)C(=C1C)C2(C)C)C(OC1OCC(O)C(O)C1O)C[C@H]1OC[C@@]31OC(C)=O (stereo partly specified) | > 100 | > 100 | 8.23 | > 88.1 | > 56.7 | > 100 | > 100 | 4.52 | > 100 | > 100 |  |
| CCCCCCCCCCCCCCCCCCNc1ccn(C2OC(COP(=O)(O)OCC3CCC(n4cnc5c(=O)[nH]cnc54)O3)C(O)C2O)c(=O)n1 (stereo unspecified) | > 100 | > 100 | > 100 | > 100 | > 100 | > 100 | > 100 | > 100 | > 100 | > 100 |  |
| CCOC(=O)c1c(Br)c(-c2ccc(Br)cc2)c(Br)n1C | 31.5 | 73 | > 100 | 63.3 | 80.7 | 75.9 | 51.8 | 49.7 | > 100 | > 100 | 5.3 |
| COC(=O)C1=C(C)NC2(O)C=CC(=O)C3C(=O)N(c4ccccc4)C(=O)C132 (stereo unspecified) | > 100 | > 100 | > 100 | > 100 | > 100 | > 100 | 78.7 | > 100 | > 100 | > 100 |  |
| Cc1cc(CNC(=O)OCc2ccccc2)c(C)c2c1Oc1ccccc1O2 | > 100 | > 100 | 53.6 | > 100 | > 100 | > 74.3 | > 100 | 36.3 | > 100 | > 100 |  |
| NNc1nc2ccccc2c(=O)n1NC(=O)C(=O)Nc1cccc(C(F)(F)F)c1 | > 100 | > 100 | > 100 | > 100 | > 100 | > 100 | > 100 | > 100 | > 100 | > 100 |  |
| C=CC1ON(Cc2ccccc2)CCc2cc(OC)c(OC)cc21 (stereo unspecified) | > 100 | > 100 | > 100 | > 100 | > 100 | > 100 | > 100 | > 100 | > 100 | > 100 |  |
| CCC1C(c2cccc(OC)c2O)c2cc3c(cc2OC1N1CCCC1)OCO3 (stereo unspecified) | 46.7 | 40.3 | 29.9 | 23.9 | > 100 | 58.9 | 43.4 | 92.4 | 68.7 | 82.1 |  |
| Cn1ccn2c3nc4ccccc4nc3c(=O)c(C#N)c12 | > 100 | > 100 | > 100 | > 100 | > 100 | > 100 | > 100 | > 100 | > 100 | > 100 |  |
